The text below walks through data of US11535630B2, “Apelin receptor (APJ) agonists and uses thereof” (Research Triangle Institute, priority 2015, dated 2022).

Structures can show the parent of a compound that is named as a salt.

The target in the experiment is T1, apelin receptor (APJ) (Homo sapiens, UniProt P35414).
T1 sequence (P35414 1-380): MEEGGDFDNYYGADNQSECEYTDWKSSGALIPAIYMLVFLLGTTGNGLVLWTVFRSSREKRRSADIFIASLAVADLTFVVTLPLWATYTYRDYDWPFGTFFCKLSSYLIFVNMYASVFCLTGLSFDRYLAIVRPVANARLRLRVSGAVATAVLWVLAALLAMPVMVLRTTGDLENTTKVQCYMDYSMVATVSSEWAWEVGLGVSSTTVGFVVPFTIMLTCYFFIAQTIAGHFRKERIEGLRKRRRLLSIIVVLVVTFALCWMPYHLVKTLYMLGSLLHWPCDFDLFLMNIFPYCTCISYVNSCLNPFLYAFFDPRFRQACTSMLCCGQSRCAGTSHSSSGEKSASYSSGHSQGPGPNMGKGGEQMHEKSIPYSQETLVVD
In words: In vitro apelin agonist activity (methods of Giddings et al., Apelin-13 as positive control). It is filed as cell-based. The settings on record: in vitro apelin agonist activity, methods of Giddings et al., Apelin-13 as positive control; read-out: EC50 (nM) Ave. The text has this:
Characterization of the Apelin Agonist Activity of the Compounds
1:39-47, the contents of which are hereby incorporated by reference in its entirety. Using the methods described in Giddings et al. and Apelin-13 as a positive control.
Take `CC1(C)CN(CC[C@@H](CC(=O)O)NC(=O)c2cc(-c3ccccc3C(F)(F)F)n(C3CCCC3)n2)C1` [compound 588, (3S)-3-({1-cyclopentyl-5-[2-(trifluoromethyl)phenyl]-1H-pyrazol-3-yl]formamido)-5-(3,3-dimethylazetidin-1-yl)pentanoic acid]: the 50% effective concentration (EC50) was found to be 502 nM.

Regarding `CC(F)(F)c1ccccc1-c1cc(C(=O)N[C@@H](CCN2CC(F)(F)C2)CC(=O)O)nn1C1CCCC1` [compound 589], the EC50 stood at 171 nM. The result for `O=C(O)C[C@H](CCN1CC[C@@H](F)C1)NC(=O)c1cc(-c2ccccc2C(F)(F)F)n(C2CCCC2)n1` [compound 590, (3S)-3-({1-cyclopentyl-5-[2-(trifluoromethyl)phenyl]-1H-pyrazol-3-yl]formamido)-5-[(3R)-3-fluoropyrrolidin-1-yl]pentanoic acid] reads 1160 nM.

Consider `O=C(O)C[C@H](CCN1CC2(CCC2(F)F)C1)NC(=O)c1cc(-c2ccccc2C(F)(F)F)n(C2CCCC2)n1` [compound 591, (3S)-3-({1-cyclopentyl-5-[2-(trifluoromethyl)phenyl]-1H-pyrazol-3-yl]formamido)-5-{5,5-difluoro-2-azaspiro[3.3]heptan-2-yl}pentanoic acid], for which the EC50 is 528 nM. Take `CC(F)(F)c1ccccc1-c1cc(C(=O)N[C@@H](CCN2CCC[C@@H](F)C2)CC(=O)O)nn1C1CCCC1` [compound 593, (3S)-3-({1-cyclopentyl-5-[2-(1,1-difluoroethyl)phenyl]-1H-pyrazol-3-yl}formamido)-5-[(3R)-3-fluoropiperidin-1-yl]pentanoic acid]: the EC50 was 79 nM. In the case of `CC(C[C@@H](CC(=O)O)NC(=O)c1cc(-c2ccccc2C(C)(F)F)n(C2CCCC2)n1)N1C[C@H](F)[C@@H](F)C1` (stereo partly drawn) [compound 595] it was 140 nM; in that of `C[C@H](C(=O)O)[C@H](CCN1CCCC(F)(F)C1)NC(=O)c1cc(-c2ccccc2C(F)(F)F)n(C2CCCC2)n1` [compound 596, (2S,3S)-3-({1-cyclopentyl-5-[2-(trifluoromethyl)phenyl]-1H-pyrazol-3-yl}formamido)-5-(3,3-difluoropiperidin-1-yl)-2-methylpentanoic acid], 88 nM.

With `C[C@@H](C(=O)O)[C@H](CCN1CCCC(F)(F)C1)NC(=O)c1cc(-c2ccccc2C(F)(F)F)n(C2CCCC2)n1` [compound 597, (2R,3S)-3-({1-cyclopentyl-5-[2-(trifluoromethyl)phenyl]-1H-pyrazol-3-yl}formamido)-5-(3,3-difluoropiperidin-1-yl)-2-methylpentanoic acid], the half-maximal effective concentration (EC50) turned out to be 23 nM. In the case of `CC(F)(F)c1ccccc1-c1cc(C(=O)N[C@@H](CCN2C[C@@H](F)[C@@H](F)C2)CC(=O)O)nn1C1CCCC1` [compound 598, (3S)-3-({1-cyclopentyl-5-[2-(1,1-difluoroethyl)phenyl]-1H-pyrazol-3-yl}formamido)-5-[cis-3,4-difluoropyrrolidin-1-yl]pentanoic acid] it was 103 nM; in that of `C[C@@H](C[C@@H](CC(=O)O)NC(=O)c1cc(-c2ccccc2C(C)(F)F)n(C2CCCC2)n1)N1CCC(F)(F)C1` [compound 600, (3S,5S)-3-({1-cyclopentyl-5-[2-(1,1-difluoroethyl)phenyl]-1H-pyrazol-3-yl}formamido)-5-(3,3-difluoropyrrolidin-1-yl)hexanoic acid], 67 nM; in that of `O=C(O)C[C@H](CCN1CC(C(F)(F)F)C1)NC(=O)c1cc(-c2ccccc2C(F)(F)F)n(C2CCCC2)n1` [compound 601, (3S)-3-({1-cyclopentyl-5-[2-(trifluoromethyl)phenyl]-1H-pyrazol-3-yl]formamido)-543-(trifluoromethypazetidin-1-yl]pentanoic acid], 128 nM. Regarding `O=C(O)C[C@H](CCN1C2CCC1CC(F)(F)C2)NC(=O)c1cc(-c2ccccc2C(F)(F)F)n(C2CCCC2)n1` [compound 602, (3S)-3-({1-cyclopentyl-5-[2-(trifluoromethyl)phenyl]-1H-pyrazol-3-yl}formamido)-5-{3,3-difluoro-8-azabicyclo[3.2.1]octan-8-yl}pentanoic acid], the EC50 is 346 nM. In the case of `O=C(O)C[C@H](CCN1CC2C(C1)C2(F)F)NC(=O)c1cc(-c2ccccc2C(F)(F)F)n(C2CCCC2)n1` (stereo partly drawn) [compound 603, (3S)-3-({1-cyclopentyl-5-[2-(trifluoromethyl)phenyl]-1H-pyrazol-3-yl}formamido)-5-{6,6-difluoro-3-azabicyclo[3.1.0]hexan-3-yl}pentanoic acid] it was 46 nM; in that of `O=C(O)C[C@H](CCN1C(=O)CCCC1=O)NC(=O)c1cc(-c2ccccc2C(F)(F)F)n(C2CCCC2)n1` [compound 604, (3S)-3-({1-cyclopentyl-5-[2-(trifluoromethyl)phenyl]-1H-pyrazol-3-yl}formamido)-5-(2,6-dioxopiperidin-1-yl)pentanoic acid], 55 nM. The result for `C[C@@H]1CC(F)(F)CN1CC[C@@H](CC(=O)O)NC(=O)c1cc(-c2ccccc2C(C)(F)F)n(C2CCCC2)n1` [compound 605, (3S)-3-({1-cyclopentyl-5-[2-(1,1-difluoroethyl)phenyl]-1H-pyrazol-3-yl]formamido)-5-[(2R)-4,4-difluoro-2-methylpyrrolidin-1-yl]pentanoic acid] reads 11 nM; that for `O=C(O)C[C@H](CCN1CC2CCC(C1)C2(F)F)NC(=O)c1cc(-c2ccccc2C(F)(F)F)n(C2CCCC2)n1` [compound 606, (3S)-3-({1-cyclopentyl-5-[2-(trifluoromethyl)phenyl]-1H-pyrazol-3-yl}formamido)-5-{8,8-difluoro-3-azabicyclo[3.2.1]octan-3-yl}pentanoic acid], 310 nM; that for `CC1CCC(F)(F)CN1CC[C@@H](CC(=O)O)NC(=O)c1cc(-c2ccccc2C(C)(F)F)n(C2CCCC2)n1` (stereo partly drawn) [compound 607, (3S)-3-({1-cyclopentyl-5-[2-(1,1-difluoroethyl)phenyl]-1H-pyrazol-3-yl}formamido)-5-(5,5-difluoro-2-methylpiperidin-1-yl)pentanoic acid], 69 nM. On to `CC1(C)CC(=O)CN1CC[C@@H](CC(=O)O)NC(=O)c1cc(-c2ccccc2C(F)(F)F)n(C2CCCC2)n1` [compound 608, (3S)-3-({1-cyclopentyl-5-[2-(trifluoromethyl)phenyl]-1H-pyrazol-3-yl}formamido)-5-(2,2-dimethyl-4-oxopyrrolidin-1-yl)pentanoic acid], for which the EC50 was found to be 1070 nM. The result for `CC1(F)CCN(CC[C@@H](CC(=O)O)NC(=O)c2cc(-c3ccccc3C(F)(F)F)n(C3CCCC3)n2)C1` (stereo partly drawn) [compound 609, (3S)-3-({1-cyclopentyl-5-[2-(trifluoromethyl)phenyl]-1H-pyrazol-3-yl}formamido)-5-(3-fluoro-3-methylpyrrolidin-1-yl)pentanoic acid] reads 98 nM. On to `O=C(O)C[C@H](CCN1CC[C@@H](F)[C@@H](F)C1)NC(=O)c1cc(-c2ccccc2C(F)(F)F)n(C2CCCC2)n1` [compound 610], for which the concentration for a half-maximal effect (EC50) amounted to 43 nM. In the case of `CC(F)(F)c1ccccc1-c1cc(C(=O)N[C@@H](CCN2CCC(=O)CC2(C)C)CC(=O)O)nn1C1CCCC1` [compound 611, (3S)-3-({1-cyclopentyl-5-[2-(1,1-difluoroethyl)phenyl]-1H-pyrazol-3-yl}formamido)-5-(2,2-dimethyl-4-oxopiperidin-1-yl)pentanoic acid] it was 509 nM; in that of `CC1(C)CC(F)(F)CN1CC[C@@H](CC(=O)O)NC(=O)c1cc(-c2ccccc2C(F)(F)F)n(C2CCCC2)n1` [compound 612, (3S)-3-({1-cyclopentyl-5-[2-(trifluoromethyl)phenyl]-1H-pyrazol-3-yl}formamido)-5-(4,4-difluoro-2,2-dimethylpyrrolidin-1-yl)pentanoic acid], 231 nM; in that of `CC1(F)CCCN(CC[C@@H](CC(=O)O)NC(=O)c2cc(-c3ccccc3C(F)(F)F)n(C3CCCC3)n2)C1` (stereo partly drawn) [compound 613, (3S)-3-({1-cyclopentyl-5-[2-(trifluoromethyl)phenyl]-1H-pyrazol-3-yl}formamido)-5-(3-fluoro-3-methylpiperidin-1-yl)pentanoic acid trifluoroacetate], 104 nM.

In the case of `C[C@]1(F)CCCN(CC[C@@H](CC(=O)O)NC(=O)c2cc(-c3ccccc3C(F)(F)F)n(C3CCCC3)n2)C1` [compound 614, (3S)-3-({1-cyclopentyl-5-[2-(trifluoromethyl)phenyl]-1H-pyrazol-3-yl}formamido)-5-[(3S)-3-fluoro-3-methylpiperidin-1-yl]pentanoic acid], the EC50 turned out to be 41 nM. Take `O=C(O)C[C@H](CCNC1(C(F)(F)F)CCCC1)NC(=O)c1cc(-c2ccccc2C(F)(F)F)n(C2CCCC2)n1` [compound 615, (3S)-3-({1-cyclopentyl-5-[2-(trifluoromethyl)phenyl]-1H-pyrazol-3-yl}formamido)-5-{[1-(trifluoromethyl)cyclopentyl]amino}pentanoic acid trifluoroacetate]: the EC50 is 353 nM. With `O=C(O)C[C@H](CCN1C[C@H](F)[C@@H](F)C1)NC(=O)c1cc(-c2ccccc2C(F)(F)F)n(C2CCCC2)n1` [compound 629, (3S)-3-({1-cyclopentyl-5-[2-(trifluoromethyl)phenyl]-1H-pyrazol-3-yl}formamido)-5-[(3S,4S)-3,4-difluoropyrrolidin-1-yl]pentanoic acid], the EC50 worked out at 77 nM. The result for `O=C(N[C@@H](CCN1C[C@H](F)[C@@H](F)C1)Cc1nnn[nH]1)c1cc(-c2ccccc2C(F)(F)F)n(C2CCCC2)n1` [compound 630] reads 24 nM.
